From patent publication US11073508B2, “Rapid conductance based ion channel analysis” (Arizona Board of Regents on Behalf of the University of …, priority 2017, dated 2021)

Legend:
Format in all cases: biochemical
[1] = Single channel recording of gA in DPhPC BLM
Protocol: (§1) All electrophysiological measurements were performed using a HEKA Electronik EPC-10 Double patch clamp amplifier (Germany) using PatchMaster software (v2.73). Data were digitized at 20 kHz and filtered at 1 kHz, unless otherwise specified. BLM conductance was measured using several multi-step voltage protocols. All protocols were evaluated against a 21-point reference protocol that applied 50 ms potential pulses ranging from −100 to +100 mV, in 10 mV intervals. Each pulse was preceded by a 10 ms rest at a holding potential of 0 mV and followed by a 1000 ms rest to ensure the bilayer capacitance was fully discharged before proceeding to the next potential step. The slope of the i-V curve is the BLM conductance, GBLM (pA/mV), and the resistance, RBLM, is (GBLM)^−1.
A 1 mg/mL stock solution of gA in EtOH was prepared and stored at 4° C. for up to two weeks. For use, the solution was diluted to 1 μg/mL in EtOH and 0.5-1 μL aliquots were injected into the bath solution at a position ca. 5 mm from the pipette tip while monitoring current at a holding potential of −100 mV. […]
Gramicidin A dimerizes in lipid bilayers to form non-selective, cation-permeable ICs and is widely used as a model IC for illustrating BLM formation. […] The conductance of the BLM was measured using protocols A and E with recording buffer on both sides of the membrane. […]

[2] = tested on: Gramicidin A (gA) channels in DPhPC BLM; test: Fast solution exchange with gA-functionalized BLMs, conductance protocol F (Example 1); settings: gA-functionalized BLM on 3 μm aperture pipette; Ca^2+ switched from 0 to 1 M
Protocol: as §1
A 1 mg/mL stock solution of gA in EtOH was prepared and stored at 4° C. for up to two weeks. […]
A dual-port perfusion apparatus was fabricated from a two-barrel theta capillary. […] The 10-90% response time of the solution exchange was determined by laterally translating the theta capillary tip to alternately deliver recording buffer and Ca^2+ solution to the pipette tip, which was positioned ˜200 μm from the outlet of the theta capillary tip, while monitoring the change in current through the pipette aperture at a holding potential of −20 mV. […]

[3] = tested on: Gramicidin A (gA) channels in DPhPC BLM; test: High speed solution exchange with gA-functionalized BLM, sub-ms conductance protocol (Example 2); settings: recording buffer switched to recording buffer + 1 M Ca^2+, 0.9 ms protocol, 10 kHz filter
Source text: Electrophysiological data was acquired with a HEKA EPC-10 Single patch clamp amplifier and digitized with Patchmaster software (v. 2.73). Single channel recordings were obtained at a −100 mV holding voltage, digitized at 20 kHz and filtered at 1 kHz, unless otherwise stated. Sub-millisecond conductance measurements were collected at 200 kHz and filtered at 10 kHz. Noise values were obtained from the Noise Panel present in Patchmaster software which measures instrument noise through the amplifier's 4-pole, low-pass Bessel filter.
Membrane conductance values were evaluated against a 21-point reference protocol that applied a 50 ms voltage pulses ranging from −100 to +100 mV, in 10 mV intervals. Each pulse was preceded by a 10 ms rest at a holding voltage of 0 mV and followed by a 1000 ms rest (0 mV) to ensure the bilayer capacitance was fully discharged before proceeding to the next voltage step. […]
Fast solution switching experiments were performed with a High Speed Solution Exchange-2/3 system (ALA Scientific, New York), A BLM pipette was positioned about 1 mm away and equidistant from the outflow of two tubes approximately perpendicular from one another. […] The solution composition perfusing across the BLM pipette was rapidly switched using a solenoid pinch valve and the membrane conductance was measured using the patch clamp amplifier. Membrane conductance was assessed as described above. […]

Row | Compound | increase in membrane conductance by an individual gA ion channel ([1]; 1 M KCl solutions) [fA/mV] | current contributed by each gA channel ([1]; holding potential −100 mV, recording buffer 1 M KCl on both sides, DPhPC BLM, 3 μm aperture) [pA] | decrease in normalized BLM conductance using the mean of a 1 s window before and after solution exchange [2] [%] | decrease in membrane conductance upon application of 1 M Ca^2+ [3] [%]
1 | Gramicidin A [gA] | ~20 | ~2 | – | –
2 | [Ca+2].[Cl-].[Cl-] [Ca^2+, CaCl2] | – | – | 81.9±13.5 | ~60
